pIC50: −log10 of the molar value.
What was measured:
[1] = test system: P388; assay: Antiproliferative activity against mouse P388 cells by MTT assay; format: functional, cell-based
[2] = test system: A2780; assay: Antiproliferative activity against human A2780 cells by MTT assay; format: functional, cell-based
[3] = test system: PA-1; assay: Antiproliferative activity against human PA1 cells by MTT assay; format: functional, cell-based
[4] = test system: Jurkat; assay: Antiproliferative activity against human Jurkat cells by MTT assay; format: functional, cell-based
[5] = test system: HGC-27; assay: Antiproliferative activity against human HGC27 cells by MTT assay; format: functional, cell-based
[6] = test system: A549; assay: Cell cycle arrest in human A549 cells assessed as accumulation at G0/G1 phase at 25 uM after 48 hrs; format: functional
[7] = test system: A549; assay: Cell cycle arrest in human A549 cells assessed as accumulation at S phase at 1.56 uM after 48 hrs; format: functional
[8] = test system: A549; assay: Cell cycle arrest in human A549 cells assessed as accumulation at S phase at 6.25 uM after 48 hrs; format: functional
[9] = test system: A549; assay: Cell cycle arrest in human A549 cells assessed as accumulation at S phase at 25 uM after 48 hrs; format: functional
[10] = test system: A549; assay: Cell cycle arrest in human A549 cells assessed as accumulation at G2/M phase at 1.56 uM after 48 hrs; format: functional
[11] = test system: A549; assay: Cell cycle arrest in human A549 cells assessed as accumulation at G2/M phase at 6.25 uM after 48 hrs; format: functional
[12] = test system: A549; assay: Cell cycle arrest in human A549 cells assessed as accumulation at G2/M phase at 25 uM after 48 hrs; format: functional
[13] = test system: Jurkat; assay: Cell cycle arrest in human Jurkat cells assessed as accumulation at G0/G1 phase at 1.56 uM after 48 hrs; format: functional
[14] = test system: Jurkat; assay: Cell cycle arrest in human Jurkat cells assessed as accumulation at G0/G1 phase at 6.25 uM after 48 hrs; format: functional
[15] = test system: Jurkat; assay: Cell cycle arrest in human Jurkat cells assessed as accumulation at G0/G1 phase at 25 uM after 48 hrs; format: functional
[16] = test system: Jurkat; assay: Cell cycle arrest in human Jurkat cells assessed as accumulation at S phase at 1.56 uM after 48 hrs; format: functional
[17] = test system: Jurkat; assay: Cell cycle arrest in human Jurkat cells assessed as accumulation at S phase at 6.25 uM after 48 hrs; format: functional
[18] = test system: Jurkat; assay: Cell cycle arrest in human Jurkat cells assessed as accumulation at S phase at 25 uM after 48 hrs; format: functional
[19] = test system: Jurkat; assay: Cell cycle arrest in human Jurkat cells assessed as accumulation at G2/M phase at 1.56 uM after 48 hrs; format: functional
[20] = test system: Jurkat; assay: Cell cycle arrest in human Jurkat cells assessed as accumulation at G2/M phase at 6.25 uM after 48 hrs; format: functional
[21] = test system: Jurkat; assay: Cell cycle arrest in human Jurkat cells assessed as accumulation at G2/M phase at 25 uM after 48 hrs; format: functional
[22] = test system: MDA-MB-231; assay: Antiproliferative activity against human MDA-MB-231 cells by MTT assay; format: functional, cell-based
[23] = test system: HCT-8; assay: Antiproliferative activity against human HCT8 cells by MTT assay; format: functional, cell-based
[24] = test system: A549; assay: Antiproliferative activity against human A549 cells by MTT assay; format: functional, cell-based
[25] = Antiproliferative activity against human H1299 cells by MTT assay; format: functional, cell-based; conditions: NCI-H1299
[26] = test system: P388; assay: Cytotoxicity against mouse P388 cells after 72 hrs by Trypan blue assay; format: functional
[27] = test system: A2780; assay: Cytotoxicity against human A2780 cells after 72 hrs by Trypan blue assay; format: functional
[28] = test system: PA-1; assay: Cytotoxicity against human PA1 cells after 72 hrs by Trypan blue assay; format: functional
[29] = test system: Jurkat; assay: Cytotoxicity against human Jurkat cells after 72 hrs by Trypan blue assay; format: functional
[30] = test system: HGC-27; assay: Cytotoxicity against human HGC27 cells after 72 hrs by Trypan blue assay; format: functional
[31] = test system: MDA-MB-231; assay: Cytotoxicity against human MDA-MB-231 cells after 72 hrs by Trypan blue assay; format: functional
[32] = test system: HCT-8; assay: Cytotoxicity against human HCT8 cells after 72 hrs by Trypan blue assay; format: functional
[33] = test system: A549; assay: Cytotoxicity against human A549 cells after 72 hrs by Trypan blue assay; format: functional
[34] = Cytotoxicity against human H1299 cells after 72 hrs by Trypan blue assay; format: functional, NCI-H1299
[35] = test system: P388; assay: Induction of apoptosis in mouse P388 cells by DAPI assay; format: functional
[36] = test system: A2780; assay: Induction of apoptosis in human A2780 cells by DAPI assay; format: functional
[37] = test system: PA-1; assay: Induction of apoptosis in human PA1 cells by DAPI assay; format: functional
[38] = test system: Jurkat; assay: Induction of apoptosis in human Jurkat cells by DAPI assay; format: functional
[39] = test system: HGC-27; assay: Induction of apoptosis in human HGC27 cells by DAPI assay; format: functional
[40] = test system: MDA-MB-231; assay: Induction of apoptosis in human MDA-MB-231 cells by DAPI assay; format: functional
[41] = test system: HCT-8; assay: Induction of apoptosis in human HCT8 cells by DAPI assay; format: functional
[42] = test system: A549; assay: Induction of apoptosis in human A549 cells by DAPI assay; format: functional
[43] = test system: NCI-H1299; assay: Induction of apoptosis in human H1299 cells by DAPI assay; format: functional
[44] = test system: P388; assay: Effect on interstrand cross linking in DNA in mouse P388 cells at 0.1 uM; format: functional
[45] = test system: P388; assay: Effect on interstrand cross linking in DNA in mouse P388 cells at 1 uM; format: functional
[46] = test system: A549; assay: Stimulation of p53 oncoprotein expression in human A549 cells at 6 uM after 72 hrs; format: functional
[47] = test system: MDA-MB-231; assay: Stimulation of p53 oncoprotein expression in human MDA-MB-231 cells at 0.9 uM; format: functional
[48] = test system: PA-1; assay: Stimulation of p53 oncoprotein expression in human PA1 cells at 1.6 uM; format: functional
[49] = test system: A549; assay: Cell cycle arrest in human A549 cells assessed as accumulation at G0/G1 phase at 1.56 uM after 48 hrs; format: functional
[50] = test system: A549; assay: Cell cycle arrest in human A549 cells assessed as accumulation at G0/G1 phase at 6.25 uM after 48 hrs; format: functional

Question: What does the source list for COC(=O)/C(=C/C(=C\c1cccc2ccccc12)[N+](=O)[O-])SC?
Answer: pIC50 [1]: 5.85; pIC50 [2]: 5.68; pIC50 [3]: 5.80; pIC50 [4]: 5.49; pIC50 [5]: 5.68; Activity [6]: 41.2%; Activity [7]: 36.9%; Activity [8]: 33%; Activity [9]: 22.5%; Activity [10]: 16.6%; Activity [11]: 18%; Activity [12]: 36.5%; Activity [13]: 31.1%; Activity [14]: 41.3%; Activity [15]: 51.2%; Activity [16]: 50.3%; Activity [17]: 38.3%; Activity [18]: 22.4%; Activity [19]: 18.6%; Activity [20]: 20.4%; Activity [21]: 26.4%; pIC50 [22]: 6.05; pIC50 [23]: 4.90; pIC50 [24]: 5.22; pIC50 [25]: 5.55; Activity [26]: 75%; Activity [27]: 55%; Activity [28]: 22%; Activity [29]: 67%; Activity [30]: 21%; Activity [31]: 16%; Activity [32]: 10%; Activity [33]: 46%; Activity [34]: 14%; Activity [35]: 27%; Activity [36]: 25%; Activity [37]: 11%; Activity [38]: 14%; Activity [39]: 7%; Activity [40]: 4%; Activity [41]: 5%; Activity [42]: 60%; Activity [43]: 2%; Activity [44]: 1.7%; Activity [45]: 3.5%; Activity [46]: 2%; Activity [47]: 2%; Activity [48]: 2%; Activity [49]: 46.5%; Activity [50]: 49%

Question: With O=[N+]([O-])C(=C/c1cccc2ccccc12)/C(=C\c1cccc2ccccc12)[N+](=O)[O-] as the compound, how does the pIC50 [1] read?
Answer: 5.68

Question: And the pIC50 [2]?
Answer: 5.70

Question: And the pIC50 [3]?
Answer: 5.44

Question: What about the pIC50 [4] of the same compound?
Answer: 5.55

Question: And the pIC50 [5]?
Answer: 5.05

Question: What about the pIC50 [22] of the same compound?
Answer: 5.03

Question: What about the pIC50 [23] of the same compound?
Answer: 5.01

Question: And the pIC50 [24]?
Answer: 4.84

Question: With O=C(O)c1ccc(/C=C(\C(=C/c2ccc(C(=O)O)c3ccccc23)[N+](=O)[O-])[N+](=O)[O-])c2ccccc12 as the compound, how does the pIC50 [1] read?
Answer: 3.84

Question: And the pIC50 [2]?
Answer: 3.44

Question: And the pIC50 [3]?
Answer: 3.89

Question: And the pIC50 [4]?
Answer: 3.76

Source: ChEMBL document CHEMBL1140763, “Design, synthesis, and in vitro evaluation of new naphthylnitrobutadienes with potential antiproliferative activity: toward a structure/activity correlation” (Bioorg Med Chem, 2008)
